The values below come from patent publication US9540366B2, “Ring-fused heterocyclic compound” (Kyowa Hakko Kirin Co., Ltd., priority 2012, dated 2017).

In general, IC50 refers to the midpoint of a concentration-inhibition curve.

For one test, the target named is T1, human Cav3.2 T-type Ca2+ channel (Homo sapiens, UniProt O95180).
T1 construct: expressed in transfected cells; host or cells: KJMGER8 cells (Namalwa cell-derived cell line)
T1 sequence (O95180 whole entry): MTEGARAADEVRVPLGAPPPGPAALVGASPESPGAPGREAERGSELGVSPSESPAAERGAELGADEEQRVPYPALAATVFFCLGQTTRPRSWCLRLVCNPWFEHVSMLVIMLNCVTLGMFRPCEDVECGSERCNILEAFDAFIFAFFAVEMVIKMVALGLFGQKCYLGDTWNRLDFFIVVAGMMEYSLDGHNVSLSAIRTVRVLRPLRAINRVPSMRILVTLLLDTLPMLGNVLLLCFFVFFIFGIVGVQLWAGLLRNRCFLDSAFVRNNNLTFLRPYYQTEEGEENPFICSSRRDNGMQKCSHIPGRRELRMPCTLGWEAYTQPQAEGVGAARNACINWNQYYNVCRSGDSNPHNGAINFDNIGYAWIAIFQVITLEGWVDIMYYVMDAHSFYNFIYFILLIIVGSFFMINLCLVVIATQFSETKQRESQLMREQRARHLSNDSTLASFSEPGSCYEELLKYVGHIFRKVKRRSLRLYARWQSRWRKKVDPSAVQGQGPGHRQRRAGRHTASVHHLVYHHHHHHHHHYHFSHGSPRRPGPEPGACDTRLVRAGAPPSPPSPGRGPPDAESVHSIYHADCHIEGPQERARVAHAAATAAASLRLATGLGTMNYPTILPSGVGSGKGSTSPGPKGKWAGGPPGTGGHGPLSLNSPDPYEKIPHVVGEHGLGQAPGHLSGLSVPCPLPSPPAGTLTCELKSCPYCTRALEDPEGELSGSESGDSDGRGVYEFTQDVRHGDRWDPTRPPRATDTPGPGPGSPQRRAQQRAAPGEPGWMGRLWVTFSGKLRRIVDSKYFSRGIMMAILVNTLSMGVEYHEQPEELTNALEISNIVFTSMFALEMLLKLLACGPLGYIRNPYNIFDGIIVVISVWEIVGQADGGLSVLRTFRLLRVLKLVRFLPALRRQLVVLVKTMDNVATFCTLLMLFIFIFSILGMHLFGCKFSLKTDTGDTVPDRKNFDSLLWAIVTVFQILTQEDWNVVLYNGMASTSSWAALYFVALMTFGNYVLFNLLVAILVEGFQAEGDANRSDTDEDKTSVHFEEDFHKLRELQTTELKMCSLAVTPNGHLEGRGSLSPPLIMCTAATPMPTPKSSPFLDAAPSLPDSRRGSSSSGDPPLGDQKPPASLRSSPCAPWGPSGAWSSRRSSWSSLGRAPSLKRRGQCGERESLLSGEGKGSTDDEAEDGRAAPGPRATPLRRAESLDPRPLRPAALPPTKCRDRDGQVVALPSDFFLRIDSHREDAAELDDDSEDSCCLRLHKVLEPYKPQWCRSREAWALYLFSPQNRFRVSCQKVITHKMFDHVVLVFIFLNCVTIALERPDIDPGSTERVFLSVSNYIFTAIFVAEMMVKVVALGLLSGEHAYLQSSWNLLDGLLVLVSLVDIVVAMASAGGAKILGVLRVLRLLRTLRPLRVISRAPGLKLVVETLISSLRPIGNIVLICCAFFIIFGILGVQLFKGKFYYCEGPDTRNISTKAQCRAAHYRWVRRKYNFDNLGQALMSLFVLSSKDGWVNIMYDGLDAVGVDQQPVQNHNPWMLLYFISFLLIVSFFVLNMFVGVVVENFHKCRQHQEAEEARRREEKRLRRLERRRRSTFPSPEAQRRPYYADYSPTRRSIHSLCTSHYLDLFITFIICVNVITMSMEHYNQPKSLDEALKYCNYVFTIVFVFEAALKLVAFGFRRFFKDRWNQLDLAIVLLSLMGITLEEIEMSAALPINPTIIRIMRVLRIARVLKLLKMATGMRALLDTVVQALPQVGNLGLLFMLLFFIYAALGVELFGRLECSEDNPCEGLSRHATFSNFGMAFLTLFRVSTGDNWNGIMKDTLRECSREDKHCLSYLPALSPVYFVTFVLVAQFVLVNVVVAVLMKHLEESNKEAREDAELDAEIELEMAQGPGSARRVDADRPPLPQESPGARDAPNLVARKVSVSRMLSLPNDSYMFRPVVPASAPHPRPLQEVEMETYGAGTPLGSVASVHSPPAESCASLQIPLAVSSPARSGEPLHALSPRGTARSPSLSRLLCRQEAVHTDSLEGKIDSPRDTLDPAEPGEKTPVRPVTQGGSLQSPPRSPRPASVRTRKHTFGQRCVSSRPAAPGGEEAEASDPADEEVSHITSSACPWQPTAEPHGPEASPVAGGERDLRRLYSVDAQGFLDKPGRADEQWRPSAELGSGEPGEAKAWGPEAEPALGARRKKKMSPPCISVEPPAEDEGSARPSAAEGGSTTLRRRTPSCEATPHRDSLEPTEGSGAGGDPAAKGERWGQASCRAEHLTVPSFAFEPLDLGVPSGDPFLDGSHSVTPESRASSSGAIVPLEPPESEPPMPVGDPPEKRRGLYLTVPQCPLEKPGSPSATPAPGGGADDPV
The test is described as follows: Inhibitory effect for intracellular calcium response via Cav3.2 T-type Ca2+ channels (FLIPR Calcium 3 Assay Kit). Format: cell-based.
Conditions: not given
In general terms: Calcium assays in cells follow changes in intracellular calcium, usually with a dye or a luminescent sensor.
As for `Cc1c(C(=O)NC2CCOCC2)cc2nc(C(F)(F)F)c(CC3CCC(F)(F)CC3)n2c1C` [Compound 167, 3-[(4,4-Difluorocyclohexyl)methyl]-5,6-dimethyl-N-(tetrahydro-2H-pyran-4-yl)-2-(trifluoromethyl)imidazo[1,2-a]pyridine-7-carboxamide], the concentration for half-maximal inhibition (IC50) was at most 0.1 µM.

Take `CC(C)c1nc2cc(C(=O)NC3CC(F)(F)C3)cc(C#N)n2c1CC1CCC(F)(F)CC1` [Compound 170, 5-Cyano-N-(3,3-difluorocyclobutyl)-3-[(4,4-difluorocyclohexyl)methyl]-2-isopropylimidazo[1,2-a]pyridine-7-carboxamide]: the half-maximal inhibitory concentration (IC50) is at most 0.1 µM.

`CC(C)c1nc2cc(C(=O)NCC(F)(F)F)cc(C#N)n2c1CC1CCC(F)(F)CC1` [Compound 171, 5-Cyano-3-[(4,4-difluorocyclohexyl)methyl]-2-isopropyl-N-(2,2,2-trifluoroethyl)imidazo[1,2-a]pyridine-7-carboxamide]: the IC50 is at most 0.1 µM.

Regarding `O=C(NCC(=O)N1CC(F)(F)C1)c1cc(Cl)n2c(CC3CCC(F)(F)CC3)c(C(F)(F)F)nc2c1` [Compound 172, 5-Chloro-N-[2-(3,3-difluoroazetidin-1-yl)-2-oxoethyl]-3-[(4,4-difluorocyclohexyl)methyl]-2-(trifluoromethyl)imidazo[1,2-a]pyridine-7-carboxamide], the IC50 was at most 0.1 µM.

With `O=C(NCC1(CO)CC1)c1cc(Cl)n2c(CC3CCC(F)(F)CC3)c(C(F)(F)F)nc2c1` [Compound 174, 5-Chloro-3-[(4,4-difluorocyclohexyl)methyl]-N-{[1-(hydroxymethyl)cyclopropyl]methyl}-2-(trifluoromethyl)imidazo[1,2-a]pyridine-7-carboxamide], the IC50 is at most 0.1 µM.

As for `N#CC1(NC(=O)c2cc(Cl)n3c(CC4CCC(F)(F)CC4)c(C(F)(F)F)nc3c2)CC1` [Compound 175, 5-Chloro-N-(1-cyanocyclopropyl)-3-[(4,4-difluorocyclohexyl)methyl]-2-(trifluoromethyl)imidazo[1,2-a]pyridine-7-carboxamide], the concentration for half-maximal inhibition (IC50) is at most 0.1 µM.

With `CC(C)c1nc2cc(C(=O)NCC(C)(F)F)cc(C#N)n2c1CC1CCC(F)(F)CC1` [Compound 177, 5-Cyano-3-[(4,4-difluorocyclohexyl)methyl]-N-(2,2-difluoropropyl)-2-isopropylimidazo[1,2-a]pyridine-7-carboxamide], the IC50 was at most 0.1 µM.

For the compound `CC(F)(F)c1nc2cc(C(=O)N[C@H]3C[C@@H]4CC[C@H]3O4)cc(C=O)n2c1CC1CCC(F)(F)CC1` [Compound 179, N-[(1R,2S,4S)-7-Oxabicyclo[2.2.1]heptan-2-yl]-3-[(4,4-difluorocyclohexyl)methyl]-2-(1,1-difluoroethyl)-5-formylimidazo[1,2-a]pyridine-7-carboxamide], the IC50 was at most 0.1 µM.

As for `C[C@H](NC(=O)c1cc(C#N)n2c(CC3CCC(F)(F)CC3)c(C(F)(F)F)nc2c1)C(=O)N(C)C` [Compound 187, (S)-5-Cyano-3-[(4,4-difluorocyclohexyl)methyl]-N-[1-(dimethylamino)-1-oxopropan-2-yl]-2-(trifluoromethyl)imidazo[1,2-a]pyridine-7-carboxamide], the concentration for half-maximal inhibition (IC50) was at most 0.1 µM.

Turning to `N#Cc1cc(C(=O)NC23CCN(CC2)C3)cc2nc(C(F)(F)F)c(CC3CCC(F)(F)CC3)n12` [Compound 188, N-(1-Azabicyclo[2.2.1]heptan-4-yl)-5-cyano-3-[(4,4-difluorocyclohexyl)methyl]-2-(trifluoromethyl)imidazo[1,2-a]pyridine-7-carboxamide], the IC50 is at most 0.1 µM.

Regarding `[2H]C([2H])([2H])OC(C)(C)CNC(=O)c1cc(CO)n2c(CC3CCC(F)(F)CC3)c(C(C)(F)F)nc2c1` [Compound 192, 3-[(4,4-Difluorocyclohexyl)methyl]-2-(1,1-difluoroethyl)-5-(hydroxymethyl)-N-(2-methoxy-d3-2-methylpropyl)imidazo[1,2-a]pyridine-7-carboxamide], the IC50 is at most 0.1 µM.

For `Cc1c(C(=O)NC2CCOCC2)cc2nc(C(F)(F)F)c(CC3CCC(F)(F)CC3)n2c1Cl` [Compound 195, 5-Chloro-3-[(4,4-difluorocyclohexyl)methyl]-6-methyl-N-(tetrahydro-2H-pyran-4-yl)-2-(trifluoromethyl)imidazo[1,2-a]pyridine-7-carboxamide], the IC50 is at most 0.1 µM.

With `N#Cc1cc(C(=O)NC(=O)C2CC2)cc2nc(C(F)(F)F)c(CC3CCC(F)(F)CC3)n12` [Compound 202, 5-Cyano-N-(cyclopropanecarbonyl)-3-[(4,4-difluorocyclohexyl)methyl]-2-(trifluoromethyl)imidazo[1,2-a]pyridine-7-carboxamide], the half-maximal inhibitory concentration (IC50) was at most 0.1 µM.

Regarding `CC(C)(C)C(=O)NC(=O)c1cc(C#N)n2c(CC3CCC(F)(F)CC3)c(C(F)(F)F)nc2c1` [Compound 203, 5-Cyano-3-[(4,4-difluorocyclohexyl)methyl]-N-pivaloyl-2-(trifluoromethyl)imidazo[1,2-a]pyridine-7-carboxamide], the half-inhibitory concentration (IC50) is at most 0.1 µM.

Regarding `Cc1cc(C(=O)NC2CCOCC2)cc2nc(C(F)(F)F)c(Cc3ccccc3)n12` [Compound 206, 3-Benzyl-5-methyl-N-(tetrahydro-2H-pyran-4-yl)-2-(trifluoromethyl)imidazo[1,2-a]pyridine-7-carboxamide], the IC50 was at most 0.1 µM.

With `Cc1ccc(Cc2c(C(F)(F)F)nc3cc(C(=O)NC4CCOCC4)cc(C)n23)cc1` [Compound 207, 5-Methyl-3-(4-methylbenzyl)-N-(tetrahydro-2H-pyran-4-yl)-2-(trifluoromethyl)imidazo[1,2-a]pyridine-7-carboxamide], the IC50 is at most 0.1 µM.

Consider `COc1ccc(Cc2c(C(F)(F)F)nc3cc(C(=O)NC4CCOCC4)cc(C)n23)cc1` [Compound 209, 3-(4-Methoxybenzyl)-5-methyl-N-(tetrahydro-2H-pyran-4-yl)-2-(trifluoromethyl)imidazo[1,2-a]pyridine-7-carboxamide], for which the IC50 is at most 0.1 µM.

Regarding `N#Cc1cc(C(=O)NC2CCOCC2)cc2nc(C(F)(F)F)c(Cc3ccc(Cl)cc3)n12` [Compound 211, 3-(4-Chlorobenzyl)-5-cyano-N-(tetrahydro-2H-pyran-4-yl)-2-(trifluoromethyl)imidazo[1,2-a]pyridine-7-carboxamide], the IC50 was at most 0.1 µM.

As for `Cc1cc(C(=O)NC2CCOCC2)cc2nc(C(F)(F)F)c(Cc3ccc(F)cc3)n12` [Compound 212, 3-(4-Fluorobenzyl)-5-methyl-N-(tetrahydro-2H-pyran-4-yl)-2-(trifluoromethyl)imidazo[1,2-a]pyridine-7-carboxamide], the half-maximal inhibitory concentration (IC50) was at most 0.1 µM.

For `CSC(C)(C)CNC(=O)c1cc2nc(C(F)(F)F)c(CC3CCC(F)(F)CC3)n2c(Cl)c1Cl` [Compound 213, 5,6-Dichloro-3-[(4,4-difluorocyclohexyl)methyl]-N-[2-methyl-2-(methylthio)propyl]-2-(trifluoromethyl)imidazo[1,2-a]pyridine-7-carboxamide], the half-maximal inhibitory concentration (IC50) is at most 0.1 µM.

As to `Cc1cc(C(=O)NC2CCOCC2)cc2nc(C(C)(F)F)c(Cc3ccc(Cl)cc3)n12` [Compound 214, 3-(4-Chlorobenzyl)-2-(1,1-difluoroethyl)-5-methyl-N-(tetrahydro-2H-pyran-4-yl)imidazo[1,2-a]pyridine-7-carboxamide], the IC50 was at most 0.1 µM.

Turning to `CC(C)(CNC(=O)c1cc2nc(C(F)(F)F)c(CC3CCC(F)(F)CC3)n2c(Cl)c1Cl)S(C)(=O)=O` [Compound 216, 5,6-Dichloro-3-[(4,4-difluorocyclohexyl)methyl]-N-[2-methyl-2-(methylsulfonyl)propyl]-2-(trifluoromethyl)imidazo[1,2-a]pyridine-7-carboxamide], the IC50 was at most 0.1 µM.

As for `Cc1cc(C(=O)NC(C)(C)C)cc2nc(C(F)(F)F)c(CC3CCC(F)(F)CC3)n12` [Compound 217, N-tert-Butyl-3-[(4,4-difluorocyclohexyl)methyl]-5-methyl-2-(trifluoromethyl)imidazo[1,2-a]pyridine-7-carboxamide], the IC50 was at most 0.1 µM.

With `Cc1cc(C(=O)NC(C)(C)C)cc2nc(C(C)(F)F)c(CC3CCC(F)(F)CC3)n12` [Compound 218, N-tert-Butyl-3-[(4,4-difluorocyclohexyl)methyl]-2-(1,1-difluoroethyl)-5-methylimidazo[1,2-a]pyridine-7-carboxamide], the half-maximal inhibitory concentration (IC50) is at most 0.1 µM.

As for `Cc1cc(C(=O)NC(C)(C)C)cc2nc(C(C)C)c(CC3CCC(F)(F)CC3)n12` [Compound 219, N-tert-Butyl-3-[(4,4-difluorocyclohexyl)methyl]-2-isopropyl-5-methylimidazo[1,2-a]pyridine-7-carboxamide], the IC50 was at most 0.1 µM.

The test is the same for the next values; noted with them: human Cav3.2-expressing KJMGER8 cells (Namalwa-derived); calcium response induced by 5 mmol/L CaCl2; 3 μmol/L mibefradil as reference; read-out: IC50 for the human Cav3.2 T-type Ca2+ current.
As to `CC(C)(C)NC(=O)c1cc(C#N)n2c(CC3CCC(F)(F)CC3)c(C(F)(F)F)nc2c1` [Compound 198, N-tert-Butyl-5-cyano-3-[(4,4-difluorocyclohexyl)methyl]-2-(trifluoromethyl)imidazo[1,2-a]pyridine-7-carboxamide], the IC50 was at most 0.1 µM.

Turning to `CC1(C)CC(NC(=O)c2cc3nc(C(F)(F)F)c(CC4CCC(F)(F)CC4)n3c(Cl)c2Cl)CCO1` (centres unmarked) [Compound 205, 5,6-Dichloro-3-[(4,4-difluorocyclohexyl)methyl]-N-(2,2-dimethyltetrahydro-2H-pyran-4-yl)-2-(trifluoromethyl)imidazo[1,2-a]pyridine-7-carboxamide], the IC50 is at most 0.1 µM.

`N#Cc1cc(C(=O)N2C[C@H]3COC[C@@H](C2)C3=O)cc2nc(C(F)(F)F)c(CC3CCC(F)(F)CC3)n12` [Compound 210, 3-[(4,4-Difluorocyclohexyl)methyl]-7-[(1R,5S)-9-oxo-3-oxa-7-azabicyclo[3.3.1]nonane-7-carbonyl)-2-(trifluoromethyl)imidazo[1,2-a]pyridine-5-carbonitrile]: the IC50 is at most 0.1 µM.

Take `Cc1cc(C(=O)N[C@H]2C[C@@H]3CC[C@H]2O3)cc2nc(C(C)(F)F)c(Cc3ccc(Cl)cc3)n12` [Compound 215, N-[(1R,2S,4S)-7-Oxabicyclo[2.2.1]heptan-2-yl]-3-(4-chlorobenzyl)-2-(1,1-difluoroethyl)-5-methylimidazo[1,2-a]pyridine-7-carboxamide]: the IC50 is at most 0.1 µM.
